{
  "source": "patent US20100146643A1",
  "about": "“RAPID IN VIVO MODEL FOR ANGIOGENESIS” (ANTICANCER, INC, priority 2006, published 2010)",
  "key": {"[1]": {"system": "MIA PaCa-2 human pancreatic cancer", "conditions": "orthotopically transplanted MIA PaCa-2-RFP, ND-GFP transgenic nude mice; cited from earlier work"}, "[2]": {"system": "XPA-1-RFP human pancreatic cancer", "conditions": "liver metastasis of XPA-1-RFP, ND-GFP transgenic nude mice; cited from earlier work"}, "[3]": {"system": "nascent blood vessels in bFGF-containing Gelfoam", "experiment": "Gelfoam subcutaneous implant angiogenesis model in ND-GFP transgenic nude mice", "assay_type": "in vivo, mouse", "protocol": "Transgenic C57/B6 nude mice that produce green fluorescent protein (GFP) in endothelial cells were used. These transgenic mice (6-8 weeks old) were anesthetized with tribromoethanol. Gelfoam® (Pharmacia & Upjohn company, Kalamazoo, Mich.) blocks (5×5 mm) were either treated with 300 ng basic fibroblast growth factor (bFGF) (Chemicon, Temecula, Calif.) in 75 μl RPMI 1640 medium (Cellgro, Herndon, Va.) or not treated. The Gelfoam® blocks were transplanted into the subcutis on both flanks of the transgenic mice, a treated block on one flank and an untreated block on the other. One group of mice was given daily ip injections of 5 μg/g of doxorubicin and another group was given 0.9% NaCl solution (vehicle control) at days 0, 1, and 2 after transplantation of Gelfoam®. Skin flaps were made at day 7 under anesthesia. Angiogenesis was quantified by measuring the length of fluorescent nascent blood vessels in the skin flap by in vivo fluorescence microscopy imaging.\nA Leica fluorescence stereo microscope model LZ12 equipped with a mercury lamp and a 50-W power supply was used. Selective excitation of GFP was produced through a D425/60 band-pass filter and a 470 DCXR dichroic mirror. Emitted fluorescence was collected through a long-pass filter (GG475; Chroma Technology, Brattleboro, Vt.) on a Hamamatsu C5810 3-chip cooled color charge-coupled device camera (Hamamatsu Photonics, Bridgewater, N.J.). Images were processed for contrast and brightness and analyzed with the use of IMAGE PRO PLUS 3.1 software (Media Cybernetics, Silver Spring, Md.). High-resolution images of 1024×724 pixels were captured directly on an IBM PC or continuously through video output on a high-resolution Sony VCR (model SLVR1000; Sony, Tokyo).\nThe experimental data are expressed as the mean ±SD. Statistical analysis was performed using the two-tailed Student's t test."}, "[4]": {"system": "B16F10-RFP murine melanoma", "conditions": "ND-GFP mice transplanted with B16F10-RFP; cited from earlier work"}, "[5]": {"conditions": "Gelfoam containing 300 ng bFGF, mice given 0.9% NaCl, day 7"}},
  "data": [
    {"molecule": "Nc1ccn([C@@H]2O[C@H](CO)[C@@H](O)C2(F)F)c(=O)n1", "note": "[Gemcitabine]", "values": [
      {"measurement": "mean nascent blood vessel density in the tumor", "setting": "[1]", "value": "significantly decreased"},
      {"measurement": "tumor volume", "setting": "[1]", "value": "decreased tumor volume"},
      {"measurement": "mean nascent blood vessel density in the liver metastases", "setting": "[2]", "value": "significantly decreased"}
    ]},
    {"molecule": "COc1cccc2c1C(=O)c1c(O)c3c(c(O)c1C2=O)C[C@@](O)(C(=O)CO)C[C@@H]3O[C@H]1C[C@H](N)[C@H](O)[C@H](C)O1", "note": "[doxorubicin]", "values": [
      {"measurement": "extent of angiogenesis (mean nascent blood vessel length, FIG. 4) in bFGF-treated Gelfoam", "setting": "[3]; doxorubicin 5 μg/g ip at days 0, 1, 2, day 7, compared with untreated Gelfoam in NaCl-treated mice", "value": "reduced below that of untreated Gelfoam® in the sodium chloride treated mice"},
      {"measurement": "neovasculature in the bFGF-treated foam (FIG. 2c)", "setting": "[3]; doxorubicin 5 μg/g ip at days 0, 1, 2, skin flap at day 7, Gelfoam with 300 ng bFGF", "value": "greatly diminished neovasculature"},
      {"measurement": "angiogenesis in the foam not containing bFGF (FIG. 2d)", "setting": "[3]; doxorubicin 5 μg/g ip at days 0, 1, 2, skin flap at day 7, Gelfoam without bFGF", "value": "no observable angiogenesis"},
      {"measurement": "nascent tumor angiogenesis", "setting": "[4]", "value": "inhibit nascent tumor angiogenesis"},
      {"measurement": "tumor growth", "setting": "[4]", "value": "inhibit"}
    ]},
    {"molecule": "bFGF: basic fibroblast growth factor (Chemicon), growth factor loaded in Gelfoam to encourage angiogenesis", "values": [
      {"measurement": "mean nascent blood vessel length", "setting": "[3]; [5]", "value": "~6", "unit": "mm/mm^2"},
      {"measurement": "neovasculature formed in the bFGF-containing Gelfoam patch (FIG. 2a)", "setting": "[3]; [5]", "value": "a large complex of neovasculature is formed"}
    ]}
  ]
}
